This is an account of results in patent publication US5777190A (priority 1997, dated 1998).

Structures are written as SMILES.

One data set relates to rats. As to conditions: rat, in vivo; cited from earlier work.
Data set [1] deals with ferredoxin NADP oxidoreductase (FNR, EC 1.18.1.2) from spinach (Spinacia oleracea, UniProt P00455).
Chain of ferredoxin NADP oxidoreductase (FNR, EC 1.18.1.2) from spinach (P00455 56-369): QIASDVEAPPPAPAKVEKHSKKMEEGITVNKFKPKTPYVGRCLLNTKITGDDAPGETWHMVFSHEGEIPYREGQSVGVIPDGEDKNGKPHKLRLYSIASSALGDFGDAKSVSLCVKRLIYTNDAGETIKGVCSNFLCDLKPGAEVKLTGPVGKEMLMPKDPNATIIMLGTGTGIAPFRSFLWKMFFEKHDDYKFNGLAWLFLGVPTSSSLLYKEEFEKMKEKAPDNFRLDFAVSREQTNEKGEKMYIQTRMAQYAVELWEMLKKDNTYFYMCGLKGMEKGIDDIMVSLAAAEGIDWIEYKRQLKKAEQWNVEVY

As for `O=[N+]([O-])c1ccccc1` [nitrobenzene], the LD50 in the data set on rats is given as 640 mg/kg. For the same compound, in data set [1], the “reduction by FNR under aerobic conditions” value is listed as “not reduced” and the “stoichiometry of transformation by FNR” value is “One mole of PHA is formed for every mole of nitrobenzene”. Moreover, the “reduction by FNR under nitrogen (product formed)” value in data set [1] (pH 8.5) is “transformation of nitrobenzene to PHA by FNR”.

Broadly, the LD50 is the dose expected to kill half of the subjects tested.
